From ChEMBL document CHEMBL1201862, “PubChem BioAssay data set” (2004)
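Compound exposure: 48 hours, 5 concentrations, 96-well plates. Abbreviation: GI50, concentration required for 50% inhibition of growth.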 Active and inactive are the calls of the source. Rule as the data show it: active = GI50 up to about 1.1 µM and inactive = higher.

Columns and labels:
Test in all cases: growth of human tumour cells (NCI), 48 h
ACHN = system: ACHN
HCT-116 = system: HCT-116
HCT-15 = system: HCT-15
HOP-92 = system: HOP-92
K562 = system: K562
MDA-N = system: MDA-N
MOLT-4 = system: MOLT-4
NCI-H226 = system: NCI-H226
NCI-H522 = system: NCI-H522
NCI/ADR-RES = system: NCI/ADR-RES
OVCAR-4 = system: OVCAR-4
OVCAR-5 = system: OVCAR-5
OVCAR-8 = system: OVCAR-8
RXF 393 = system: RXF 393
SF-539 = system: SF-539
SK-MEL-5 = system: SK-MEL-5
SK-OV-3 = system: SK-OV-3
SW-620 = system: SW-620
UACC-62 = system: UACC-62
SNB-78 = system: SNB-78

| Compound | GI50 (ACHN) | GI50 (HCT-116) | GI50 (HCT-15) | GI50 (HOP-92) | GI50 (K562) | GI50 (MDA-N) | GI50 (MOLT-4) | GI50 (NCI-H226) | GI50 (NCI-H522) | GI50 (NCI/ADR-RES) | GI50 (OVCAR-4) | GI50 (OVCAR-5) | GI50 (OVCAR-8) | GI50 (RXF 393) | GI50 (SF-539) | GI50 (SK-MEL-5) | GI50 (SK-OV-3) | GI50 (SW-620) | GI50 (UACC-62) | GI50 (SNB-78) |
| --- | --- | --- | --- | --- | --- | --- | --- | --- | --- | --- | --- | --- | --- | --- | --- | --- | --- | --- | --- | --- |
| COc1ccc(/[N+]([O-])=C/c2ccccc2OC(=S)S)cc1 | 38.5 µM (inactive) | 25.5 µM (inactive) | 30.6 µM | 12.4 µM (inactive) | 37.4 µM (inactive) | 24.7 µM (inactive) | 37.7 µM (inactive) | 30.8 µM (inactive) | 25.1 µM (inactive) | 28.1 µM (inactive) | 28.4 µM (inactive) | 35.9 µM (inactive) | 18.7 µM (inactive) | 52 µM (inactive) | 22.6 µM (inactive) | 30.5 µM (inactive) | 86.1 µM (inactive) | 39.8 µM (inactive) | 32.6 µM (inactive) |  |
| COc1ccc(N(C(=O)Nc2ccc(Cl)c(Cl)c2)c2ccccc2)cc1 | > 10 µM (inactive) | > 10 µM (inactive) | > 10 µM | > 10 µM (inactive) | > 10 µM (inactive) | > 10 µM (inactive) | > 10 µM (inactive) | > 10 µM (inactive) | > 10 µM (inactive) | > 10 µM (inactive) | > 10 µM (inactive) | > 10 µM (inactive) | > 10 µM (inactive) | > 10 µM (inactive) | > 10 µM (inactive) | > 10 µM (inactive) | > 10 µM (inactive) | > 10 µM (inactive) | > 10 µM (inactive) |  |
| O=C(N/C(=C\c1ccc([N+](=O)[O-])cc1)c1nc2c(O)nc(S)nc2[nH]1)c1ccccc1 | > 100 µM (inactive) |  | > 100 µM | 43.7 µM (inactive) | 73.1 µM (inactive) |  | 88.7 µM (inactive) |  | 57.1 µM (inactive) |  | 99.5 µM (inactive) | > 100 µM (inactive) | > 100 µM (inactive) | > 100 µM (inactive) | > 100 µM (inactive) | > 100 µM (inactive) | > 100 µM (inactive) | > 100 µM (inactive) | > 100 µM (inactive) | > 100 µM (inactive) |
| CCOC(=O)Cc1ccc(Nc2nc3cc(F)c(F)cc3nc2C(=O)OCC)cc1 | 18.4 µM (inactive) | 71.9 µM (inactive) | 21.8 µM | 13.4 µM (inactive) | 35.7 µM (inactive) | 45 µM (inactive) | 44 µM (inactive) | 69.3 µM (inactive) | 9.18 µM (inactive) | 43.9 µM (inactive) | 57 µM (inactive) | > 100 µM (inactive) | 29.2 µM (inactive) | 33.9 µM (inactive) | > 100 µM (inactive) | 34.5 µM (inactive) | > 100 µM (inactive) | 43.7 µM (inactive) | 39.2 µM (inactive) |  |
| O=C(CCCN1CC=C(n2c(=O)[nH]c3ccccc32)CC1)c1cccs1 | > 100 µM (inactive) | > 100 µM (inactive) | > 100 µM | > 100 µM (inactive) | 66.2 µM (inactive) | > 100 µM (inactive) | 45.6 µM (inactive) | > 100 µM (inactive) | > 100 µM (inactive) | > 100 µM (inactive) | > 100 µM (inactive) | > 100 µM (inactive) | > 100 µM (inactive) | > 100 µM (inactive) | > 100 µM (inactive) | > 100 µM (inactive) | > 100 µM (inactive) | > 100 µM (inactive) | > 100 µM (inactive) |  |
| COC(=O)NC(=O)c1cn(C2OC(CO)C(O)C2O)c(=O)[nH]c1=O (centres undefined) | > 100 µM (inactive) | > 100 µM (inactive) | > 100 µM | > 100 µM (inactive) | > 100 µM (inactive) |  | > 100 µM (inactive) | > 100 µM (inactive) | > 100 µM (inactive) |  | > 100 µM (inactive) | > 100 µM (inactive) | > 100 µM (inactive) |  | > 100 µM (inactive) |  | > 100 µM (inactive) | > 100 µM (inactive) | > 100 µM (inactive) | > 100 µM (inactive) |
| Nc1ccc(C(=O)N/C(=C\C=C\c2ccco2)c2nc3c4c(ccc3[nH]2)C(=O)c2ccccc2C4=O)cc1 | 10.8 µM (inactive) | 24.8 µM (inactive) | 31.9 µM | 37 µM (inactive) | 26.8 µM (inactive) |  | 3.67 µM (inactive) |  | 15.8 µM (inactive) |  | 52.4 µM (inactive) | > 100 µM (inactive) | 32.2 µM (inactive) | 25.2 µM (inactive) | 17.2 µM (inactive) | 38 µM (inactive) | 21.7 µM (inactive) | 33 µM (inactive) | 25 µM (inactive) | 64.6 µM (inactive) |
| CN(CCCNC(=O)c1nn(-c2ccc(Cl)cc2Cl)c2c1ccc1ccccc12)CCCNC(=O)c1nn(-c2ccc(Cl)cc2Cl)c2c1ccc1ccccc12 | 1.66 µM (inactive) | 1.67 µM (inactive) | 1.7 µM | 1.84 µM (inactive) | 1.1 µM (active) | 1.73 µM (inactive) | 1.61 µM (inactive) | 2.25 µM (inactive) | 1.46 µM (inactive) | 1.59 µM (inactive) | 1.68 µM (inactive) | 1.89 µM (inactive) | 1.82 µM (inactive) | 1.66 µM (inactive) | 1.76 µM (inactive) | 1.88 µM (inactive) | 2 µM (inactive) | 2.26 µM (inactive) | 1.65 µM (inactive) |  |
